Measurements taken from patent US6756359B2, “C12 modified erythromycin macrolides and ketolides having antibacterial activity” (Chiron Corporation, priority 2001, dated 2004).
≈ marks a conversion by molar mass, not a printed value.

Legend:
Assay in all cases: Antibacterial activity in vitro, MIC by broth microdilution
H. influenzae Hain_49247 = format: cell-based, Haemophilus influenzae; settings: Table 3, Strain ID L: H. influenzae Hain_49247; unit assumed
Procedure, shortened: (§1)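 Visible-growth inhibition defined the MIC, obtained by NCCLS broth microdilution at 35° C. over 18-24 hours with a final inoculum of 3×10^5–7×10^5 CFU/mL.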

[1] = tested on: S. epidermidis Step_14990; format: cell-based; settings: Table 3, Strain ID A: S. epidermidis Step_14990; unit assumed
Procedure, shortened: as §1

[2] = tested on: S. epidermidis Step_f50654 Pen S; format: cell-based; settings: Table 3, Strain ID B: S. epidermidis Step_f50654 Pen S; unit assumed
Procedure, shortened: as §1

E. faecalis Enfa_29212 = format: cell-based; settings: Table 3, Strain ID C: E. faecalis Enfa_29212; unit assumed
Procedure, shortened: as §1

S. pyogenes Stpy_8668 = format: cell-based; settings: Table 3, Strain ID D: S. pyogenes Stpy_8668
Procedure, shortened: as §1

E. coli Esco_25922 = format: cell-based; settings: Table 3, Strain ID M: E. coli Esco_25922; unit assumed
Procedure, shortened: as §1

[3] = tested on: S. pneumoniae Stpn_280-962 Pen S; format: cell-based, Streptococcus pneumoniae; settings: Table 3, Strain ID G: S. pneumoniae Stpn_280-962 Pen S
Procedure, shortened: as §1

[4] = tested on: S. pneumoniae Stpn_297-749 Pen R; format: cell-based, Streptococcus pneumoniae; settings: Table 3, Strain ID F: S. pneumoniae Stpn_297-749 Pen R
Procedure, shortened: as §1

[5] = tested on: S. pneumoniae Stpn_Erm 6849; format: cell-based, Streptococcus pneumoniae; settings: Table 3, Strain ID H: S. pneumoniae Stpn_Erm 6849; unit assumed
Procedure, shortened: as §1

S. pneumoniae Stpn_49619 = format: cell-based, Streptococcus pneumoniae; settings: Table 3, Strain ID E: S. pneumoniae Stpn_49619
Procedure, shortened: as §1

[6] = tested on: S. pneumoniae Stpn_Mef S 3427; format: cell-based, Streptococcus pneumoniae; settings: Table 3, Strain ID K: S. pneumoniae Stpn_Mef S 3427
Procedure, shortened: as §1

[7] = tested on: S. pneumoniae Stpn_Mef 5654; format: cell-based, Streptococcus pneumoniae; settings: Table 3, Strain ID J: S. pneumoniae Stpn_Mef 5654; unit assumed
Procedure, shortened: as §1

[8] = tested on: S. pneumoniae Stpn_Erm S 4297; format: cell-based, Streptococcus pneumoniae; settings: Table 3, Strain ID I: S. pneumoniae Stpn_Erm S 4297
Procedure, shortened: as §1

Compound	MIC (H. influenzae Hain_49247) [µg/mL]	MIC [1] [µg/mL]	MIC [2] [µg/mL]	MIC (E. faecalis Enfa_29212) [µg/mL]	MIC (S. pyogenes Stpy_8668; unit assumed) [µg/mL]	MIC (E. coli Esco_25922) [µg/mL]	MIC [3]	MIC [4]	MIC [5] [µg/mL]	MIC (S. pneumoniae Stpn_49619)	MIC ([6]; unit assumed) [µg/mL]	MIC [7] [µg/mL]	MIC ([8]; unit assumed) [µg/mL]	MIC (S. pyogenes Stpy_8668)	MIC [6]	MIC [8]
CC[C@H]1OC(=O)[C@H](C)C(=O)[C@H](C)[C@@H](O[C@@H]2O[C@H](C)C[C@H](N(C)C)[C@H]2O)[C@@](C)(OC)C[C@@H](C)C(=O)[C@H](C)[C@@H]2[C@@H]1OC(=O)N2CCCn1cnc2cccnc21 [Compound 4716]	25 (≈ 33 µM)	6.25 (≈ 8.25 µM)	12.5 (≈ 16.5 µM)	0.78 (≈ 1.03 µM)	0.1 (≈ 0.132 µM)	> 50	≦0.5	≦0.5	> 50	≦0.5	0.4 (≈ 0.528 µM)	0.78 (≈ 1.03 µM)	25 (≈ 33 µM)	–	–	–
CC[C@H]1OC(=O)[C@H](C)C(=O)[C@H](C)[C@@H](O[C@@H]2O[C@H](C)C[C@H](N(C)C)[C@H]2O)[C@@](C)(OC)C[C@@H](C)C(=O)[C@H](C)[C@H]2N(CCCCc3ccnc4ccccc34)C(=O)O[C@]12CC [Compound 7283]	3.13 (≈ 3.86 µM)	0.2 (≈ 0.247 µM)	0.2 (≈ 0.247 µM)	0.1 (≈ 0.123 µM)	–	12.5 (≈ 15.4 µM)	≦0.05	≦0.05	0.4 (≈ 0.494 µM)	≦0.05	–	0.4 (≈ 0.494 µM)	0.1 (≈ 0.123 µM)	≦0.05	≦0.05	–
CC[C@H]1OC(=O)[C@H](C)C(=O)[C@H](C)[C@@H](O[C@@H]2O[C@H](C)C[C@H](N(C)C)[C@H]2O)[C@@](C)(OC)C[C@@H](C)C(=O)[C@H](C)[C@@H]2[C@@H]1OC(=O)N2CCCn1cnc(-c2ccccc2)c1 [Compound 4714]	> 50	6.25 (≈ 7.98 µM)	6.25 (≈ 7.98 µM)	0.4 (≈ 0.511 µM)	0.1 (≈ 0.128 µM)	> 50	≦0.5	≦0.5	> 50	≦0.5	0.1 (≈ 0.128 µM)	0.4 (≈ 0.511 µM)	6.25 (≈ 7.98 µM)	–	–	–

Continued, values first:

MIC (H. influenzae Hain_49247) [µg/mL]	MIC [1] [µg/mL]	MIC [2] [µg/mL]	MIC (E. faecalis Enfa_29212) [µg/mL]	MIC (S. pyogenes Stpy_8668; unit assumed) [µg/mL]	MIC (E. coli Esco_25922) [µg/mL]	MIC [3]	MIC [4]	MIC [5] [µg/mL]	MIC (S. pneumoniae Stpn_49619)	MIC ([6]; unit assumed) [µg/mL]	MIC [7] [µg/mL]	MIC ([8]; unit assumed) [µg/mL]	MIC (S. pyogenes Stpy_8668)	MIC [6]	MIC [8]	Compound
6.25 (≈ 8.12 µM)	0.2 (≈ 0.26 µM)	0.4 (≈ 0.519 µM)	0.1 (≈ 0.13 µM)	–	> 50	≦0.5	≦0.5	6.25 (≈ 8.12 µM)	≦0.5	–	0.2 (≈ 0.26 µM)	0.4 (≈ 0.519 µM)	≦0.5	≦0.05	–	CC[C@H]1OC(=O)[C@H](C)C(=O)[C@H](C)[C@@H](O[C@@H]2O[C@H](C)C[C@H](N(C)C)[C@H]2O)[C@@](C)(OC)C[C@@H](C)C(=O)[C@H](C)[C@@H]2[C@@H]1OC(=O)N2CCCCn1ccc2ccccc21 [Compound 4717]
3.13 (≈ 3.79 µM)	0.2 (≈ 0.242 µM)	0.1 (≈ 0.121 µM)	0.1 (≈ 0.121 µM)	–	25 (≈ 30.3 µM)	≦0.05	≦0.05	0.2 (≈ 0.242 µM)	≦0.05	–	0.4 (≈ 0.485 µM)	–	≦0.05	≦0.05	≦0.05	CC[C@H]1OC(=O)[C@H](C)C(=O)[C@H](C)[C@@H](O[C@@H]2O[C@H](C)C[C@H](N(C)C)[C@H]2O)[C@@](C)(OC)C[C@@H](C)C(=O)[C@H](C)[C@H]2N(CCCCn3cnc(-c4ccccc4)c3)C(=O)O[C@]12CC [Compound 7281]
